The source of these data is patent US20240278014A1, “METHODS AND PHARMACEUTICAL FORMULATIONS FOR MODULATING THE PROPERTIES OF THE BLOOD LABYRINTH BARRIER” (Cochlear Limited, priority 2021, published 2024).

The conditions of series [1]: guinea pig, in vivo, iv. The protocol: Fluorescein (20 mM) was administered through a cannula in the jugular vein by continuous intravenous (IV) injection at a rate of 20 μL/minute. […] Implants were placed through a cochleostomy into the basal turn of the scala tympani. Perilymph sampling began two hours after IV infusion began, and the concentration of fluorescein in the perilymph was used as a proxy for BLB permeability. Sampling in the perilymph was accomplished as follows: The cochlear apex was prepared for fluid sampling by building a hydrophobic cup of silicone adhesive around it. When the apex was perforated, the emerging fluid collected in the cup without loss into the middle ear. Ten samples were collected in sequence, with each taking 60 to 90 seconds. […] Fluorescein concentrations were compared for implanted versus non-implanted […], and from ears of non-implanted control animals.

Series [2] is described as follows: Perilymph fluorescein as proxy for BLB permeability after cochlear implantation. The class given is in vivo, guinea pigs. The settings on record: on average; same animal; perilymph sampled two hours after start of IV infusion. From the text: In some embodiments, methods for assessing a more permeable than normal blood labyrinth barrier (but not treating it or preventing it from becoming more permeable) involve injecting a pharmaceutical formulation functioning as a marker into the blood stream of a recipient, measuring the amount of formulation in the perilymph as a function of time. As the barrier becomes more permeable after implantation, the formulation may be detected in greater quantities in the perilymph. In this type of experiment, the data may be normalized to the contralateral ear (without an implant), which allows data to be collected from a single subject serving as its own “control.”
We measured the time course of BLB compromise following cochlear implantation in guinea pigs to characterize the development of increasing BLB permeability relating to the BLB disruption that surgical implantation causes.
Seven days following cochlear implantation, the perilymph was sampled at 126 minutes (non-implanted) and 127 minutes (implanted) after the start of IV fluorescein infusion began (shown in solid symbols). Open symbols show the same data corrected to a sample time beginning at 120 minutes after the start of the infusion, assuming a linear rate of entry through the BLB over time. […] Each sample time represents the mean of samples 1-6 from one ear; lines represent the group (n=5) mean. […]

The conditions of series [3]: in vivo; cited from earlier work.

For the molecule `O=C1OC2(c3ccc(O)cc3Oc3cc(O)ccc32)c2ccccc21` [Fluorescein], in series [1], the elimination half time amounted to 11 min and the “volume of calculated time course” value is 183 mL. The “BLB permeability increase (perilymph fluorescein, implanted versus nonimplanted ear)” value in series [2] is “two- to three-fold”.
As to lipopolysaccharide [LPS], the “effect on BLB” value in series [3] is on record as “induce systemic inflammation, compromising the BLB”.
